PubChem BioAssay AID1259411 (Chemical Carcinogenesis Research Information System (CCRIS), 2018)
Calls of active or inactive are those of the source. No rule for the calls is given here.

System: rodent carcinogenicity bioassays, tumor incidence
Experiment: CCRIS carcinogenicity studies
Summary of the method: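 Archive of carcinogenicity, mutagenicity, tumor promotion and tumor inhibition results drawn from journals, NCI reports and other sources, expert-reviewed; covers 1985-2011 and is no longer updated.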

Q: `C1CCC2CCCCC2C1` (stereo not drawn) was tested. Which carcinogen call (Species: MOUSE, Strain/Sex: B6C3F1/FEMALE (50/GROUP), Route: INHALATION, Dose: 0, 25, 100, 400 PPM 6 HR/D, 5 D/WK FOR 105 WKS (STUDY DURATION: 105 WKS), Dose: 0, 25, 100, 400 PPM 6 HR/D, 5 D/WK FOR 105 WKS (STUDY DURATION: 105 WKS), Tumor Site: Type of Lesion: LIVER: HEPATOCELLULAR ADENOMA OR CARCINOMA (22%; 54%; 28%; 42%)) did it give?
A: equivocal; ntp says marginal increase in uterine tumors but p values did not rea

Q: And the carcinogen call (Species: MOUSE, Strain/Sex: B6C3F1/MALE (50/GROUP), Route: INHALATION, Dose: 0, 25, 100, 400 PPM 6 HR/D, 5 D/WK FOR 105 WKS (STUDY DURATION: 105 WKS), Dose: 0, 25, 100, 400 PPM 6 HR/D, 5 D/WK FOR 105 WKS (STUDY DURATION: 105 WKS))?
A: inactive; negative

Q: And the carcinogen call (Species: RAT, Strain/Sex: F344/FEMALE, Route: INHALATION, Dose: 0, 25, 100, 400 PPM IN AIR, 6 H PLUS 12 MIN/D, 5 D/WK FOR 2 YR (STUDY DURATION: 2 YR), Dose: 0, 25, 100, 400 PPM IN AIR, 6 H PLUS 12 MIN/D, 5 D/WK FOR 2 YR (STUDY DURATION: 2 YR))?
A: inactive; negative

Q: And the carcinogen call (Species: RAT, Strain/Sex: F344/MALE, Route: INHALATION, Dose: 0, 25, 50, 100, 400 PPM IN AIR , 6 H PLUS 12 MIN/D, 5 D/WK FOR 2 YR (STUDY DURATION: 2 YR), Dose: 0, 25, 50, 100, 400 PPM IN AIR , 6 H PLUS 12 MIN/D, 5 D/WK FOR 2 YR (STUDY DURATION: 2 YR), Tumor Site: Type of Lesion: KIDNEY: RENAL TUBULE ADENOMA, RENAL TUBULE ADENOMA OR CARCINOMA)?
A: active; positive

Q: And the carcinogen call (Species: RAT, Strain/Sex: F344/N/FEMALE (50/GROUP), Route: INHALATION, Dose: 0, 25, 100, 400 PPM 6 HR/D, 5 D/WK FOR 105 WKS (STUDY DURATION: 105 WKS), Dose: 0, 25, 100, 400 PPM 6 HR/D, 5 D/WK FOR 105 WKS (STUDY DURATION: 105 WKS))?
A: inactive; negative

Q: What about the carcinogen call (Species: RAT, Strain/Sex: F344/N/MALE (20/GROUP), Route: INHALATION, Dose: 400 PPM 6 HR/D, 5 D/WK FOR 105 WKS (STUDY DURATION: 105 WKS), Tumor Site: Type of Lesion: KIDNEY: RENAL TUBULE ADENOMA OR CARCINOMA (30%), ADRENAL: PHEOCHROMOCYTOMA (40%)) of the same molecule?
A: active; positive

Q: What about the carcinogen call (Species: RAT, Strain/Sex: F344/N/MALE (50/GROUP), Route: INHALATION, Dose: 0, 25, 50, 100 PPM 6 HR/D, 5 D/WK FOR 105 WKS (STUDY DURATION: 105 WKS), Dose: 0, 25, 50, 100 PPM 6 HR/D, 5 D/WK FOR 105 WKS (STUDY DURATION: 105 WKS), Tumor Site: Type of Lesion: KIDNEY: RENAL TUBULE ADENOMA OR CARCINOMA (2%; 6%; 14%; 24%), ADRENAL: BENIGN OR MALIGNANT PHEOCHROMOCYTOMA (16%, 18%, 2, Tumor Site: Type of Lesion: KIDNEY: RENAL TUBULE ADENOMA OR CARCINOMA (2%; 6%; 14%; 24%), ADRENAL: BENIGN OR MALIGNANT PHEOCHROMOCYTOMA (16%, 18%, 2) of the same molecule?
A: active; positive; alpha-2u-globulin, incidences of renal tubule regeneration and granula

Q: For `C[C@]12CC[C@@H]3C4=C(CC[C@H]3[C@@H]1CCC2=O)C(=O)C(=O)C=C4`, which carcinogen call (Species: RAT, Strain/Sex: STRAIN-CD/FEMALE, Route: INJECTION, Dose: 0, 30 UMOL (TOTAL DOSE) 1/6 INJECTED UNDER EACH OF 3 THORACIC AND 3 INGUINAL NIPPLES ONCE (STUDY DURATION: 44 WK)) is on record?
A: inactive; negative

Q: Which carcinogen call (Species: MOUSE, Route: ORAL, Tumor Site: Type of Lesion: MAMMARY GLAND, PITUITARY GLAND) does the source give for `C#C[C@]1(O)CC[C@H]2[C@@H]3CCC4=C(CCC(=O)C4)[C@H]3CC[C@@]21C` here?
A: active; positive

Q: What about the carcinogen call (Species: RAT, Route: ORAL, Tumor Site: Type of Lesion: LIVER, MAMMARY GLAND, PITUITARY GLAND, Tumor Site: Type of Lesion: LIVER, MAMMARY GLAND, PITUITARY GLAND) of the same molecule?
A: active; positive

Q: Which carcinogen call (Species: MOUSE, Strain/Sex: B6AKF1/MALE, Route: GAVAGE/ORAL, Dose: 215 MG/KG IN GELATIN FROM D 7-28 OF LIFE THEN 560 PPM IN DIET, Tumor Site: Type of Lesion: LIVER: HEPATOMA) does the source give for `CC(C)N(C(=O)SC/C(Cl)=C/Cl)C(C)C` here?
A: active; positive

Q: What about the carcinogen call (Species: MOUSE, Strain/Sex: B6C3F1/MALE,FEMALE, Route: GAVAGE/ORAL, Dose: 215 MG/KG IN GELATIN FROM D 7-28 OF LIFE THEN 560 PPM IN DIET, Tumor Site: Type of Lesion: LIVER: HEPATOMA) of the same molecule?
A: active; positive

Q: And the carcinogen call (Species: RAT, Strain/Sex: STRAIN-CD/MALE,FEMALE, Route: ORAL, Dose: 150, 300 PPM IN DIET FOR 78 WK)?
A: inactive; negative

Q: What does the source list for `Cc1ccc(O)c(O)c1`?
A: carcinogen call (Species: RAT, Strain/Sex: F344/FEMALE, Route: ORAL, Dose: 0, 2% IN DIET FOR 104 WK (STUDY DURATION: 104 WK), Tumor Site: Type of Lesion: FORESTOMACH: PAPILLOMA, SQUAMOUS CELL CARCINOMA, GLANDULAR STOMACH: ADENOMA, ADENOCARCINOMA): active; positive; carcinogen call (Species: RAT, Strain/Sex: F344/MALE, Route: ORAL, Dose: 0, 2% IN DIET FOR 104 WK (STUDY DURATION: 104 WK), Tumor Site: Type of Lesion: FORESTOMACH: PAPILLOMA, SQUAMOUS CELL CARCINOMA, GLANDULAR STOMACH: ADENOMA, ADENOCARCINOMA): active; positive

Q: With `CC(=O)O[C@]1(C(C)=O)CC[C@H]2[C@@H]3C[C@H](C)C4=CC(=O)CC[C@]4(C)[C@H]3CC[C@@]21C` as the molecule, how does the carcinogen call (Species: DOG, Route: INTRAMUSCULAR, Tumor Site: Type of Lesion: MAMMARY GLAND) read?
A: active; positive

Q: What about the carcinogen call (Species: MONKEY, Strain/Sex: CYNOMOLGUS/FEMALE, Route: ORAL, Dose: 0, 2.5 MG/WOMAN/D HUMAN DOSE EQUIVALENT IN DIET FOR 36 MONTHS BEGINNING 3 MONTHS POST BILATERAL OVARIECTOMY (STUDY DURAT) of the same molecule?
A: inactive; negative

Q: For `c1ccc(-c2ccccc2)cc1`, which carcinogen call (Species: MOUSE, Strain/Sex: CRJ:BDF1/FEMALE, Route: ORAL, Dose: 667, 2000, 6000 PPM IN DIET FOR 2 YRS (STUDY DURATION: 2 YRS), Dose: 667, 2000, 6000 PPM IN DIET FOR 2 YRS (STUDY DURATION: 2 YRS), Tumor Site: Type of Lesion: LIVER: HEPATOCELLULAR ADENOMA AND CARCINOMA) is on record?
A: active; positive

Q: What about the carcinogen call (Species: MOUSE, Strain/Sex: CRJ:BDF1/MALE, Route: ORAL, Dose: 0, 667, 2000, 6000 PPM IN DIET FOR 2 YRS (STUDY DURATION: 2 YRS), Dose: 0, 667, 2000, 6000 PPM IN DIET FOR 2 YRS (STUDY DURATION: 2 YRS)) of the same molecule?
A: inactive; negative

Q: What about the carcinogen call (Species: RAT, Strain/Sex: F344/FEMALE, Route: ORAL, Dose: 0, 500, 1500, 4500 PPM IN DIET FOR 105 WK (STUDY DURATION: 105 WK ), Dose: 0, 500, 1500, 4500 PPM IN DIET FOR 105 WK (STUDY DURATION: 105 WK )) of the same molecule?
A: inactive; negative

Q: What about the carcinogen call (Species: RAT, Strain/Sex: F344/MALE, Route: ORAL, Dose: 0, 500, 1500, 4500 PPM IN DIET FOR 105 WK (STUDY DURATION: 105 WK ), Dose: 0, 500, 1500, 4500 PPM IN DIET FOR 105 WK (STUDY DURATION: 105 WK ), Tumor Site: Type of Lesion: URINARY BLADDER: TRANSITIONAL CELL PAPILLOMA, TRANSITIONAL CELL CARCINOMA) of the same molecule?
A: active; positive

Q: Which carcinogen call (Species: MOUSE, Route: SUBCUTANEOUS IMPLANT, Tumor Site: Type of Lesion: MAMMARY GLAND, VAGINA) does the source give for `C[C@]12CC[C@H]3[C@@H](CCC4=CC(=O)CC[C@@]43C)[C@@H]1CC[C@@H]2O` here?
A: active; positive

Q: What about the carcinogen call (Species: MOUSE, Route: SUBCUTANEOUS, Tumor Site: Type of Lesion: GENITAL TRACT) of the same molecule?
A: active; positive

Q: `C=C(C#N)C(=O)O` was tested. Which carcinogen call (Species: RAT, Strain/Sex: F344/FEMALE, Route: SUBCUTANEOUS IMPLANT, Dose: 0.12 G INJECTED INTO 2 SITES ON THE LATERAL ABDOMEN, 2 SITES ON THE LATERAL CHEST REGION AND 1 SITE ON THE BACK (STUDY D, Tumor Site: Type of Lesion: IMPLANT SITE: MALIGNANT HISTIOCYTOMA) did it give?
A: active; positive

Q: Which carcinogen call (Species: MOUSE, Strain/Sex: B6C3F1/FEMALE, Route: ORAL, Dose: 0, 6300, 12500 PPM IN DIET FOR 103 WK (STUDY DURATION: 103 WK), Dose: 0, 6300, 12500 PPM IN DIET FOR 103 WK (STUDY DURATION: 103 WK)) does the source give for `CN(C)[C@@H]1C(=O)C(C(N)=O)=C(O)[C@@]2(O)C(=O)C3=C(O)c4c(O)cccc4[C@@](C)(O)[C@H]3[C@H](O)[C@@H]12` here?
A: inactive; negative

Q: What about the carcinogen call (Species: MOUSE, Strain/Sex: B6C3F1/MALE, Route: ORAL, Dose: 0, 6300, 12500 PPM IN DIET FOR 103 WK (STUDY DURATION: 103 WK), Dose: 0, 6300, 12500 PPM IN DIET FOR 103 WK (STUDY DURATION: 103 WK)) of the same molecule?
A: inactive; negative

Q: And the carcinogen call (Species: RAT, Strain/Sex: F344/FEMALE, Route: ORAL, Dose: 0, 25000, 50000 PPM IN DIET FOR 103 WK (STUDY DURATION: 103 WK), Dose: 0, 25000, 50000 PPM IN DIET FOR 103 WK (STUDY DURATION: 103 WK), Tumor Site: Type of Lesion: PITUITARY GLAND: ADENOMA)?
A: equivocal

Q: And the carcinogen call (Species: RAT, Strain/Sex: F344/MALE, Route: ORAL, Dose: 0, 25000, 50000 PPM IN DIET FOR 103 WK (STUDY DURATION: 103 WK), Dose: 0, 25000, 50000 PPM IN DIET FOR 103 WK (STUDY DURATION: 103 WK), Tumor Site: Type of Lesion: ADRENAL GLAND: PHEOCHROMOCYTOMA)?
A: equivocal
